“And” between values parts separate entries of the source, which are not always exact repeats. Equal entries are not always repeated.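 Compound exposure: 48 hours, 5 concentrations, 96-well plates. GI50 is the concentration that inhibits growth by half. TGI is the concentration that stops growth completely.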

The subject of this assay is MDA-MB-468 breast. Nature of the assay: NCI tumour cell line growth inhibition, 48 h.
For the molecule `NS(=O)(=O)c1ccc(-c2cc3ccncc3cc2OCc2ccccc2)cc1`, the GI50 was 13.4 µM and the TGI was above 25 µM.

For the molecule `CC(=O)NCc1cccc(C#Cc2cncnc2Nc2ccc(OCc3cccc(F)c3)c(Cl)c2)c1`, the GI50 is 1.29 µM and the TGI turned out to be 6.29 µM.

Consider `CSc1nc2sc3c(c2c(=O)n1-c1ccc(C(C)C)cc1)CCC(=O)C3`, for which the GI50 was 2.16 µM and the TGI was found to be 5.99 µM.

Take `Oc1c(I)cc(I)c2cccnc12`: the GI50 was 7.01 µM and the TGI came to 30.3 µM.

On to `CC1OC(OC2C(O)CC(OC3C(O)CC(OC4CCC5(C)C(CCC6C5CC(O)C5(C)C(C7=CC(=O)OC7)CCC65O)C4)OC3C)OC2C)CC(O)C1O` (stereo not drawn), for which the GI50 is 0.159 µM and the TGI came to 0.364 µM.

As to `Cc1cc(N(CCCNc2ccnc3cc(Cl)ccc23)Cc2ccco2)nc(N2CCN(C)CC2)n1`, the GI50 was 1.81 µM and the TGI is 4.32 µM.

For the molecule `COc1ccc(C(=O)c2c(N)c(C#N)cn2-c2cccc(OC)c2)cc1`, the GI50 was 1.12 µM and the TGI was 4.23 µM.

Consider `c1ccc2c(c1)Nc1ccncc1S2`, for which the GI50 is 18.9 µM and the TGI amounted to 50.8 µM.

`N#CCCN1C/C(=C/c2ccc(Cl)cc2)C(=O)/C(=C/c2ccc(Cl)cc2)C1`: the GI50 was 1 µM and the TGI was determined as 2.89 µM.

Consider `CCN(CC)CCCCCCNc1cc(OC)cc2cccnc12`, for which the GI50 was 1.93 µM and the TGI was 3.8 µM.

In the case of `COc1ccc(/C=C(\C#N)n2nnc3c(F)cccc32)cc1`, the GI50 is 1.58 µM and the TGI turned out to be 6.67 µM.

As for `CN(CCNCc1ccccn1)CCNCc1ccccn1`, the GI50 is 2.71 µM and the TGI is 7.93 µM.

For the molecule `COc1ccc(N(CC(=O)NCCC[Te]c2ccccc2)C(=O)CNC(=O)OC(C)(C)C)cc1`, the GI50 is 3.2 µM and the TGI amounted to 10.9 µM.

As to `COc1cc2c(cc1OCCCCN1CCN(C(=S)SCCC(C#N)(c3ccccc3)c3ccccc3)CC1)N=C[C@@H]1CCCN1C2=O`, the GI50 was 0.499 µM and the TGI turned out to be 31.4 µM.

In the case of `COc1cc2nc(-c3cc(F)ccc3O)nc(N[C@@H]3CNC[C@H]3C(C)(C)O)c2cc1OC`, the GI50 is 1.64 µM and the TGI worked out at 3.12 µM.

For `O=C(CC1(O)C(=O)N(Cc2ccccc2)c2ccccc21)c1ccc(C(=O)NCC2CCC3(CC2)OOC2(CCCCC2)OO3)cc1` (stereo not drawn), the GI50 is 1.49 µM and the TGI is 3.31 µM.

As for `O=C1OC(C(O)CO)C(O)=C1O` (stereo not drawn), the GI50 is 1820 µM and 2020 µM; the TGI is 3760 µM and 4400 µM.

In the case of `CCc1cccc(C)c1NC(=O)c1sc2nc3c(cc2c1N)C(=O)CCC3`, the GI50 is 0.377 µM and the TGI is 60.5 µM.

`O=C(CCCCCCN1CC(=O)N2[C@@H](c3ccc(Cl)c(Cl)c3)c3[nH]c4ccccc4c3C[C@H]2C1=O)NO`: the GI50 was 1.89 µM and the TGI was found to be 7.42 µM.

Consider `COc1cc(/C=C/C(=O)c2cccc(-n3cc(-c4ccc(Cl)cc4)[nH]c3=O)c2)cc(OC)c1OC`, for which the GI50 was 12.8 µM and the TGI turned out to be 34.7 µM.

For `Cc1cccc2c3c(sc12)C(c1ccc(Cl)cc1)C(C#N)=C(N)O3` (stereo not drawn), the GI50 is 0.277 µM and the TGI is 3.75 µM.

With `COC(=O)[C@H]1CCCN1C(=O)[C@H]1CCCN1C(=O)[C@@H](Cc1c[nH]c2ccccc12)NC(=S)Nc1cc(C(F)(F)F)cc(C(F)(F)F)c1`, the GI50 was 2.26 µM and the TGI came out at 5.9 µM.

For `COc1ccc(-c2nc(/C=C3\SC(=NCc4ccccc4)NC3=O)c3ccccn23)cc1`, the GI50 was 1.9 µM and the TGI amounted to 4.39 µM.

Regarding `CC(C)(O)CNc1nc(Nc2ccnc(C(F)(F)F)c2)nc(-c2cccc(C(F)(F)F)n2)n1`, the GI50 is 18 µM and the TGI was determined as 38.5 µM.

On to `Oc1cccc2ccc(N/N=C/c3cc(CN4CCOCC4)c(O)c4ncccc34)nc12`, for which the GI50 was 0.0302 µM and the TGI was 0.289 µM.

Consider `Nc1nc(Nc2ccccc2SSc2ccccc2Nc2nc(N)nc(C(Cl)(Cl)Cl)n2)nc(C(Cl)(Cl)Cl)n1`, for which the GI50 was 4.7 µM and the TGI stood at 29.1 µM.

Regarding `Cn1cc(C2=C(c3cccc(OC[C@@H](O)CO)c3)C(=O)NC2=O)c2ccccc21`, the GI50 is above 25 µM and the TGI is above 25 µM.

As for `CCCCCO/N=C\c1c2c(O)c3c(O)c(C)c4c(c3c1O)C(=O)C(C)(O/C=C\C(OC)C(C)C(OC(C)=O)C(C)C(O)C(C)C(O)C(C)/C=C\C=C(\C)C(=O)N2)O4` (stereo not drawn), the GI50 was 2.17 µM and the TGI stood at 6.33 µM.

`O=C(/C=C/c1cccc(O)c1)c1cccc(-n2cc(-c3ccccc3)[nH]c2=O)c1`: the GI50 was 2.46 µM and the TGI was 7.7 µM.

As to `C#CCNC(=O)[C@H](CC)[C@H]1CC[C@H](C)[C@H]([C@@H](C)[C@H](O)[C@H](C)C(=O)[C@H](CC)C2O[C@]3(C=CC(=O)[C@]4(CC[C@@](C)([C@H]5CC[C@](O)(CC)[C@H](C)O5)O4)O3)[C@H](C)C[C@@H]2C)O1` (stereo partly drawn), the GI50 was 2.51 µM and the TGI stood at 21.5 µM.

`N#CC1=C(/N=C/c2ccccc2)Oc2c(ccc3ccccc23)C1c1ccccc1` (stereo not drawn): the GI50 is 0.247 µM and the TGI was 0.741 µM.

Turning to `C[C@]12CC[C@@H]3c4cc(OC(F)F)c(OS(N)(=O)=O)cc4CC[C@H]3[C@@H]1CC[C@@H]2O`, the GI50 was 0.244 µM and the TGI is 1.42 µM.

With `O=C(Nc1cccc(-n2cc(-c3ccncc3)c(-c3cc(O)cc(Cl)c3)n2)c1)c1cc(C(F)(F)F)cc(C(F)(F)F)c1`, the GI50 is 3.1 µM and the TGI was above 100 µM.

As for `C/C(=C\c1cnc(C)s1)[C@@H]1C[C@@H]2O[C@@H]2CCC[C@H](C)[C@H](O)[C@@H](C)C(=O)C(C)(C)[C@@H](O)CC(=O)O1`, the GI50 is below 0.01 µM and the TGI was 1.81 µM.

With `C=CCN1CC(=O)N2[C@@H](Cc3ccc(O)cc3F)C(=O)N(Cc3cccc(N4CC(N5CCN(CC)CC5)C4)n3)C[C@@H]2N1C(=O)NCc1ccccc1`, the GI50 is 0.232 µM and the TGI is above 100 µM.

Turning to `CCCCCCNC(=O)Oc1ccc(/C(=C(\C)c2ccc(Cl)cc2)c2ccc(OCCN3CCCCC3)cc2)cc1`, the GI50 was 3.46 µM and the TGI is 8.7 µM.

Take `Cc1cc(C#Cc2ccc(C(C)(C)C)cc2)ccc1-n1c(/C=C/c2ccc(O)cc2O)nc2ccccc2c1=O`: the GI50 was 2.2 µM and the TGI amounted to 6.5 µM.

Regarding `C(=N/N(Cc1ccccc1)Cc1ccccc1)/c1ccccc1`, the GI50 was above 100 µM and the TGI is above 100 µM.

Consider `COC1=C(OC)C(=O)C(SC/C=C(\C)CCCC(C)CCCC(C)CCCC(C)C)=CC1=O` (stereo not drawn), for which the GI50 was 3.33 µM and the TGI is above 100 µM.

For `CC1=C(CC(=O)c2cccc([N+](=O)[O-])c2)C(=O)c2ccccc2C1=O`, the GI50 was 1.77 µM and the TGI was found to be 5.9 µM.

As for `COC(=O)c1cncc(/C=C/c2c(C)cc(O)cc2C)c1`, the GI50 is 4.32 µM and the TGI stood at 12.6 µM.

`Oc1ccc(C(c2ccc(O)cc2)c2ccc(Br)cn2)cc1`: the GI50 was 0.234 µM and the TGI is 0.637 µM.

In the case of `Cc1ccc(-c2nc([P+](c3ccccc3)(c3ccccc3)c3ccccc3)c(S(=O)(=O)c3ccc(C)cc3)o2)cc1`, the GI50 is 1.03 µM and the TGI was found to be 2.6 µM.

Regarding `O=C(N/N=C/c1ccco1)c1[nH]c2ccc(Br)cc2c1-c1ccccc1`, the GI50 was 0.22 µM and the TGI was found to be 2.4 µM.

The record behind these values is PubChem BioAssay (NCI).
